According to patent publication US20240108654A1, “COMBINATION OF A T CELL THERAPY AND A DGK INHIBITOR” (Juno Therapeutics, Inc., priority 2021, published 2024):

Experiments:
Human venous whole blood = assay: Human whole blood IFN-γ assay; format: cell-based; conditions: anti-CD3 and anti-CD28 1 μg/mL each, 24 hours; 3 μM reference compound as 100% activation; read-out: INFg Whole Blood Normalized Agonist EC50
Experimental: Human venous whole blood (22.5 μL per well), obtained from healthy donors, was pre-treated with compounds for one hour at 37° C. in a humidified 95% air/5% CO2 incubator. The blood was stimulated with 2.5 μL anti-human CD3 and anti-CD28 mAb at a final concentration of 1 μg/mL each for 24 hours at 37° C. IFN-γ in the supernatants was measured using ALphLISA kit (Cat #AL217).

[1] = system: anti-CD19 CAR-expressing T cells; assay: CAR-T cell phenotype after stimulation with CAR-specific anti-idiotypic antibody (flow cytometry); format: cell-based, human; conditions: 48-hour stimulation with 3 or 30 μg/mL anti-idiotypic antibody; compound 0.1-1000 nM; two donors
Excerpt: T cell compositions containing T cells expressing an exemplary anti-CD19 CAR were generated from leukapheresis samples from two healthy human adult donors by a process that included immunoaffinity-based selection of T cells by separately selecting CD4+ and CD8+ cells from the samples, resulting in two compositions enriched for CD4+ and CD8+ cells, respectively, per donor. Cells of the enriched CD4+ and CD8+ compositions were separately activated with anti-CD3/anti-CD28 beads and subjected to lentiviral transduction with a vector encoding an anti-CD19 CAR. […]
Prior to use, the cryopreserved CD4+ and CD8+ CAR-engineered cell compositions were thawed and combined at approximately a 1:1 CD4:CD8 ratio for each donor to prepare a combined CD4+ CAR+ and CD8+ CAR+ T cell composition. The effects of treatment with Compound 17 at various concentrations (0.1 nM, 1 nM, 10 nM, 100 nM, or 1000 nM) added at day 0 during stimulation of the combined CAR-T cell composition with a plate-bound CAR-specific anti-idiotypic antibody (see, e.g., WO2018/023100) or during co-culture with CD19-expressing cells was then assessed. […]

[2] = system: anti-CD19 CAR-expressing T cells; assay: T cell proliferation during acute stimulation with plate-bound anti-CAR anti-idiotypic antibody (Incucyte confluence); format: cell-based, human; conditions: 30 μg/mL plate-bound anti-idiotypic antibody, seven days, compound present during stimulation
Experimental: T cell proliferation during stimulation with 30 μg/mL of plate-bound anti-CAR anti-idiotypic antibody in the presence of Compound 17 was monitored for seven days using an Incucyte imaging system. Cell proliferation was monitored by analyzing the occupied area (% confluence) of cell images over time; as cells proliferate, the confluence increases.
Triplicate values for cell compositions manufactured from the two different healthy donors are shown.

[3] = system: anti-CD19 CAR-expressing T cells; assay: T cell viability in acute stimulation assays; format: cell-based, human
[4] = system: anti-CD19 CAR-expressing T cells; assay: Activation phenotype of CAR-T cells chronically stimulated with concurrent compound treatment; format: cell-based, human; conditions: seven-day chronic stimulation, concurrent compound 0.1-1000 nM
Experimental: To simulate conditions of chronic stimulation, approximately 20,000 anti-CD19 CAR-expressing T cells of a combined CAR-T cell composition produced as described in Example 1 from two healthy adult donors were incubated with 30 μg/mL of plate-bound CAR-specific anti-idiotypic antibody (see, e.g., WO2018/023100) at 37° C. for a period of seven days. During this seven-day period, engineered CAR T cells were concurrently treated with Compound 17 (0.1-1000 nM) or a vehicle control added at day 0.

[5] = system: anti-CD19 CAR-expressing T cells; assay: Rescue treatment of chronically stimulated CAR-T cells: cytolytic activity, 2D co-culture with CD19-expressing lymphoma cells; format: cell-based, human; conditions: rescue treatment during 2D co-culture, higher concentrations
Experimental: (§1) Anti-CD19 CAR-expressing T cells, produced as described in Example 1, were chronically stimulated with plate-bound CAR-specific anti-idiotypic antibody for seven days as described in Example 2, but in the absence of Compound 17 during chronic stimulation. Instead, chronically stimulated CAR T cells were treated with Compound 17 during re-challenge with CD19-expressing tumor cells, after which cytolytic activity and cytokine production were assessed.
The chronically stimulated CAR-T cells were incubated with various CD19-expressing lymphoma cells at a 2.5:1 effector:target ratio in the presence of DGKi (0-1000 nM). The tumor cells were labeled with NucLight Red (NLR) and tumor cell number was monitored by Incucyte®.

[6] = system: anti-CD19 CAR-expressing T cells; assay: Rescue treatment of chronically stimulated CAR-T cells: cytolytic activity, 3D tumor spheroids; format: cell-based, human; conditions: rescue treatment during co-culture; A549.CD19 and Granta-519 spheroids, day 9
Experimental: as §1
Cytolytic activity also was assessed in CD19-expressing tumor spheroid cultures incubated with chronically stimulated CAR-T cells in the presence of DGKi. A549 CD19+ tumor spheroids or Granta-519 tumor spheroids were incubated with the anti-CD19 CAR-expressing T cells at an effector to target ratio of 1:2 for up to 14 days in the presence of DGKi (0-1000 nM). The tumor spheroids were engineered to express a red fluorescent dye to permit monitoring of tumor cell lysis by microscopy during the assay. Cytolytic activity was assessed by monitoring fluorescence over time, and the tumor volume (normalized to time zero) was measured as the number of red calibrated units (RCU)×μm^2 area. […] Duplicate values for cell compositions manufactured from the two different healthy donors are shown.

[7] = system: anti-CD19 CAR-expressing T cells; assay: Rescue treatment of chronically stimulated CAR-T cells: cytokine production (MSD), 3D tumor spheroids; format: cell-based, human; conditions: five days 3D co-culture with A549.CD19 and Granta-519 spheroids
Experimental: as §1
Supernatant was collected at day 5 from the above tumor spheroid cultures with chronically stimulated CAR-expressing T cells. Cytokine production was measured from the supernatant by meso scale discovery (MSD) analysis of the collected cell supernatants. […] Duplicate values for cell compositions manufactured from the two different healthy donors are shown.

Question: How did the EC50 (Human venous whole blood) turn out when CC[C@H]1CN([C@@H](CC)c2ccc(C(F)(F)F)cc2)[C@H](CC)CN1c1nc(=O)n(C)c2ccc(C#N)nc12 [Compound 17, 4-((2S,5R)-2,5-diethyl-4-((S)-1-(4-(trifluoromethyl)phenyl)propyl)piperazin-1-yl)-1-methyl-2-oxo-1,2-dihydropyrido[3,2-d]pyrimidine-6-carbonitrile] was run?
Answer: 20 nM

Question: And the “expression of CD27 and CD62L (% positive cells and MFI, presence vs. absence of compound)” value [1]?
Answer: decreased

Question: What about the “expression of CD69 and PD-1 (% positive cells and MFI, presence vs. absence of compound)” value [1] of the same compound?
Answer: increased

Question: And the “T cell proliferation (% confluence)” value [2]?
Answer: did not affect T cell proliferation

Question: And the T cell viability [3]?
Answer: no impact

Question: What about the “populations of highly activated CAR-T cells (CD69, PD-1 high)” value [4] of the same compound?
Answer: increased populations of highly activated CAR-T cells

Question: And the “CAR-T cell cytolytic activity (tumor cell number)” value ([5]; Granta-519 cells)?
Answer: improved the cytolytic activity

Question: What about the “CAR-T cell cytolytic activity (tumor cell number)” value ([5]; K562.CD19 cells) of the same compound?
Answer: improved the cytolytic activity

Question: And the “CAR-T cell cytolytic activity (normalized tumor volume)” value [6]?
Answer: improved the cytolytic activity

Question: And the “production of IFNγ, IL-2 and TNFα in supernatant” value [7]?
Answer: dose-dependent increase in production of all three cytokines
